From ChEMBL document CHEMBL2424562, “A comparative study of antimicrobial properties of cyclo(l-Pro- l-Asp) with its 2-ketopiperazine analog” (2013)
Values after ≈ are worked out from the molar mass of the structure shown.

Key:
Assay type in all cases: functional
[1] = system: Staphylococcus epidermidis; experiment: Antibacterial activity against Staphylococcus epidermidis MTCC 435 at MIC after overnight incubation by disc diffusion method
[2] = system: Escherichia coli; experiment: Antibacterial activity against Escherichia coli MTCC 2622 after 24 hrs by two-fold dilution method; details: MTCC 2622, 24 h
[3] = system: Trichophyton rubrum; experiment: Antifungal activity against Trichophyton rubrum MTCC 296 at MIC after 48 hrs by disc diffusion method
[4] = system: Bacillus subtilis; experiment: Antibacterial activity against Bacillus subtilis MTCC 2756 at MIC after overnight incubation by disc diffusion method
[5] = system: Staphylococcus aureus; experiment: Antibacterial activity against Staphylococcus aureus MTCC 902 at MIC after overnight incubation by disc diffusion method
[6] = system: Aspergillus fumigatus; experiment: Antifungal activity against Aspergillus fumigatus MTCC 3376 at 30 degC after 72 hrs by microbroth dilution technique; details: MTCC 3376, 72 h
[7] = system: Aspergillus niger; experiment: Antifungal activity against Aspergillus niger MTCC 277 at 30 degC after 72 hrs by microbroth dilution technique; details: MTCC 277, 72 h
[8] = system: Aspergillus tubingensis; experiment: Antifungal activity against Aspergillus tubingensis MTCC 2425 at MIC after 48 hrs by disc diffusion method
[9] = system: Candida albicans; experiment: Antifungal activity against Candida albicans MTCC 3017 at 37 degC after 48 hrs by microbroth dilution technique; details: MTCC 3017, 48 h
[10] = system: Candida albicans; experiment: Antifungal activity against Candida albicans MTCC 3017 at MIC after 48 hrs by disc diffusion method
[11] = system: Candida tropicalis; experiment: Antifungal activity against Candida tropicalis MTCC 184 at MIC after 48 hrs by disc diffusion method
[12] = system: Staphylococcus epidermidis; experiment: Antibacterial activity against Staphylococcus epidermidis MTCC 435 after 24 hrs by two-fold dilution method; details: MTCC 435, 24 h
[13] = system: Penicillium expansum; experiment: Antifungal activity against Penicillium expansum MTCC 2006 at MIC after 48 hrs by disc diffusion method
[14] = system: Escherichia coli; experiment: Antibacterial activity against Escherichia coli MTCC 2622 at MIC after overnight incubation by disc diffusion method
[15] = system: Penicillium expansum; experiment: Antifungal activity against Penicillium expansum MTCC 2006 at 30 degC after 72 hrs by microbroth dilution technique; details: MTCC 2006, 72 h
[16] = system: Pseudomonas aeruginosa; experiment: Antibacterial activity against Pseudomonas aeruginosa MTCC 2642 after 24 hrs by two-fold dilution method; details: MTCC 2642, 24 h
[17] = system: Pseudomonas aeruginosa; experiment: Antibacterial activity against Pseudomonas aeruginosa MTCC 2642 at MIC after overnight incubation by disc diffusion method
[18] = system: Aspergillus tubingensis; experiment: Antifungal activity against Aspergillus tubingensis MTCC 2425 at 30 degC after 72 hrs by microbroth dilution technique; details: MTCC 2425, 72 h
[19] = system: Bacillus subtilis; experiment: Antibacterial activity against Bacillus subtilis MTCC 2756 after 24 hrs by two-fold dilution method; details: MTCC 2756, 24 h
[20] = system: Candida tropicalis; experiment: Antifungal activity against Candida tropicalis MTCC 184 at 37 degC after 48 hrs by microbroth dilution technique; details: MTCC 184, 48 h
[21] = system: Aspergillus flavus; experiment: Antifungal activity against Aspergillus flavus MTCC 183 at 30 degC after 72 hrs by microbroth dilution technique; details: MTCC 183, 72 h
[22] = system: Staphylococcus aureus; experiment: Antibacterial activity against Staphylococcus aureus MTCC 902 after 24 hrs by two-fold dilution method; details: MTCC 902, 24 h
[23] = system: Aspergillus flavus; experiment: Antifungal activity against Aspergillus flavus MTCC 183 at MIC after 48 hrs by disc diffusion method
[24] = system: Aspergillus niger; experiment: Antifungal activity against Aspergillus niger MTCC 277 at MIC after 48 hrs by disc diffusion method
[25] = system: Klebsiella pneumoniae; experiment: Antibacterial activity against Klebsiella pneumoniae MTCC 109 at MIC after overnight incubation by disc diffusion method
[26] = system: Aspergillus fumigatus; experiment: Antifungal activity against Aspergillus fumigatus MTCC 3376 at MIC after 48 hrs by disc diffusion method
[27] = system: Trichophyton rubrum; experiment: Antifungal activity against Trichophyton rubrum MTCC 296 at 30 degC after 72 hrs by microbroth dilution technique; details: MTCC 296, 72 h
[28] = system: Klebsiella pneumoniae; experiment: Antibacterial activity against Klebsiella pneumoniae MTCC 109 after 24 hrs by two-fold dilution method; details: MTCC 109, 24 h
[29] = system: Penicillium expansum; experiment: Ratio of amphotericin B MIC to compound MIC for Penicillium expansum MTCC 2006

| SMILES | diameter of the inhibition zone (DIZ) [1] [mm] | diameter of the inhibition zone (DIZ) [3] [mm] | diameter of the inhibition zone (DIZ) [4] [mm] | diameter of the inhibition zone (DIZ) [5] [mm] | MIC [6] [µg/mL] | MIC [7] [µg/mL] | diameter of the inhibition zone (DIZ) [8] [mm] | MIC [9] [µg/mL] | diameter of the inhibition zone (DIZ) [10] [mm] | diameter of the inhibition zone (DIZ) [11] [mm] | MIC [12] [µg/mL] | diameter of the inhibition zone (DIZ) [13] [mm] | diameter of the inhibition zone (DIZ) [14] [mm] | MIC [15] [µg/mL] | MIC [16] [µg/mL] | diameter of the inhibition zone (DIZ) [17] [mm] | MIC [18] [µg/mL] | MIC [19] [µg/mL] | MIC [20] [µg/mL] | MIC [21] [µg/mL] | further results |
| --- | --- | --- | --- | --- | --- | --- | --- | --- | --- | --- | --- | --- | --- | --- | --- | --- | --- | --- | --- | --- | --- |
| O=C(O)C[C@@H]1NC[C@@H]2CCCN2C1=O | 23 | 28 | 15 | 16 | 250 (≈ 1260 µM) | 64 (≈ 323 µM) | 21 | 250 (≈ 1260 µM) | 15 | 14 | 64 (≈ 323 µM) | 13 | 19 | 500 (≈ 2520 µM) | 125 (≈ 631 µM) | 14 | 125 (≈ 631 µM) | 125 (≈ 631 µM) | 125 (≈ 631 µM) | 32 (≈ 161 µM) | MIC [2]: 64 µg/mL (≈ 323 µM); MIC [22]: 250 µg/mL (≈ 1260 µM); diameter of the inhibition zone (DIZ) [23]: 24 mm; diameter of the inhibition zone (DIZ) [24]: 19 mm; diameter of the inhibition zone (DIZ) [25]: 17 mm; diameter of the inhibition zone (DIZ) [26]: 18 mm; MIC [27]: 8 µg/mL (≈ 40.4 µM); MIC [28]: 32 µg/mL (≈ 161 µM) |
| O=C(O)C[C@@H]1NC(=O)[C@@H]2CCCN2C1=O | 24 | 38 | 24 | 21 | 32 (≈ 151 µM) | 16 (≈ 75.4 µM) | 25 | 8 (≈ 37.7 µM) | 26 | 33 | 64 (≈ 302 µM) | 29 | 26 | 8 (≈ 37.7 µM) | 16 (≈ 75.4 µM) | 26 | 32 (≈ 151 µM) | 32 (≈ 151 µM) | 4 (≈ 18.8 µM) | 16 (≈ 75.4 µM) | MIC [2]: 16 µg/mL (≈ 75.4 µM); Ratio [29]: 8; MIC [22]: 64 µg/mL (≈ 302 µM); diameter of the inhibition zone (DIZ) [23]: 28 mm; diameter of the inhibition zone (DIZ) [24]: 22 mm; diameter of the inhibition zone (DIZ) [25]: 31 mm; diameter of the inhibition zone (DIZ) [26]: 23 mm; MIC [27]: 2 µg/mL (≈ 9.42 µM); MIC [28]: 8 µg/mL (≈ 37.7 µM) |
| C[C@@H]1[C@H](O)[C@@H](C)/C=C/C=C/C=C/C=C/C=C/C=C/C=C/[C@H](O[C@@H]2O[C@H](C)[C@@H](O)[C@H](N)[C@@H]2O)C[C@@H]2O[C@](O)(C[C@@H](O)C[C@@H](O)[C@H](O)CC[C@@H](O)C[C@@H](O)CC(=O)O[C@H]1C)C[C@H](O)[C@H]2C(=O)O [AMPHOTERICIN B] | – | 29 | – | – | 16 (≈ 17.3 µM) | 32 (≈ 34.6 µM) | 30 | 16 (≈ 17.3 µM) | 31 | 24 | – | 20 | – | 64 (≈ 69.3 µM) | – | – | 64 (≈ 69.3 µM) | – | 8 (≈ 8.66 µM) | 16 (≈ 17.3 µM) | diameter of the inhibition zone (DIZ) [23]: 22 mm; diameter of the inhibition zone (DIZ) [24]: 26 mm; diameter of the inhibition zone (DIZ) [26]: 25 mm; MIC [27]: 4 µg/mL (≈ 4.33 µM) |
| O=C(O)c1cn(C2CC2)c2cc(N3CCNCC3)c(F)cc2c1=O [CIPROFLOXACIN] | 31 | – | 30 | 31 | – | – | – | – | – | – | 0.25 (≈ 0.754 µM) | – | 32 | – | 1 (≈ 3.02 µM) | 33 | – | 2 (≈ 6.04 µM) | – | – | MIC [22]: 1 µg/mL (≈ 3.02 µM); diameter of the inhibition zone (DIZ) [25]: 33 mm; MIC [28]: 0.5 µg/mL (≈ 1.51 µM) |
